Where a name gives a salt, the structure may show the parent alone.
What was measured:
Dog pharmacokinetics = assay type: in vivo, male Beagle dogs; settings: 1 mg/kg i.v., 2 mg/kg oral
Method: Compounds were dosed to male Beagle dogs by single intravenous or oral administration at a nominal dose level of 1 mgkg^−1 and 2 mgkg^−1 respectively. The study was carried out according to a crossover design such that the same dog was used for both dosing events and the dosing events occurred 1 week apart. Compounds were formulated in 5%DMSO/45%Peg2oO/50%water. An intravenous profile was obtained by taking serial blood samples at 0.083, 0.25, 0.5, 0.75, 1, 2, 4, 6 & 12 h post-dose. An oral profile was obtained by taking serial blood samples at 0.25, 0.5, 0.75, 1, 2, 4, 6, 12 & 24 h post-dose. Blood samples were taken directly into heparinised tubes. Blood samples were prepared by protein precipitation and subjected to quantitative analysis by LC-MS/MS using compound-specific mass transitions. Drug concentration-time profiles were generated and non-compartmental PK analysis used to generate estimates of half-life, clearance, volume of distribution and oral bioavailability.

CNS penetration = assay type: in vivo, male CD Sprague Dawley rats; settings: male, CD Sprague Dawley, iv; rat, 1 mg/kg i.v., brain 5 min post-dose
Method: Compounds were dosed intravenously at a nominal dose level of 1 mgkg−1 to male CD Sprague Dawley rats. Compounds were formulated in 5% DMSO/45% PEG200/50% water. Blood samples were taken under terminal anaesthesia with isoflurane at 5 min post-dose and the brains were also removed for assessment of brain penetration. Blood samples were taken directly into heparinised tubes. Blood samples were prepared for analysis using protein precipitation and brain samples were prepared using extraction of drug from brain by homogenisation and subsequent protein precipitation. The concentration of parent drug in blood and brain extracts was determined by quantitative LC-MS/MS analysis using compound-specific mass transitions.

Rat pharmacokinetics = assay type: in vivo, male CD Sprague Dawley rats; settings: 1 mg/kg i.v., 3 mg/kg oral
Method: Compounds were dosed to male CD Sprague Dawley rats by single intravenous or oral administration at a nominal dose level of 1 mgkg^−1 and 3 mgkg^−1 respectively. Compounds were formulated in 5% DMSO/45% PEG200/50% water. An intravenous profile was obtained by taking serial or terminal blood samples at 0.083, 0.25, 0.5, 1, 2, 4, and 7 h post-dose. An oral profile was obtained by taking serial or terminal blood samples at 0.25, 0.5, 1, 2, 4, 7 and 12 h post-dose. Blood samples were taken directly into heparinised tubes. Blood samples were prepared by protein precipitation and subjected to quantitative analysis by LC-MS/MS using compound-specific mass transitions. Drug concentration-time profiles were generated and non-compartmental PK analysis used to generate estimates of half-life, clearance, volume of distribution and oral bioavailability.

C[C@@H]1CCCN1CCCOc1ccc(N2CCN(C(=O)c3ccc(F)cc3F)CC2=O)cc1 [Example E1, 4-[(2,4-Difluorophenyl)carbonyl]-1-[4-({3-[(2R)-2-methyl-1-pyrrolidinyl]propyl)oxy)phenyl]-2-piperazinone, formate salt]
oral bioavailability (Dog pharmacokinetics): approximately 100 % F | concentration at 5 min (CNS penetration): ~57.5 ng/g | oral bioavailability (Rat pharmacokinetics): approximately 48 % F
